Assay results published in patent publication US6906061B2, “Pharmaceutical agent containing Rho kinase inhibitor” (Mitsubishi Pharma Corporation, priority 1996, dated 2005).
Where a name gives a salt, the structure may show the parent alone. Read-outs that look alike come from different tables or passages of the source.

Legend:
[1] = tested on: BALB/c spleen cells stimulated with C57BL/6 spleen cells; test: Inhibition of mouse allogenic mixed lymphocyte reaction; assay type: cell-based; settings: 4 days culture, MTT, read-out: Mouse allogenic MLR inhibitory activity IC50
Description: Inhibition of Mouse Allogenic Mixed Lymphocyte Reaction
A mouse allogenic mixed lymphocyte reaction (hereinafter to be referred to as mouse allogenic MLR) was performed by mixed culture (equal ratio) of the spleen cell of BALB/c mice as the reaction cell and the spleen cell of C57BL/6 mice treated with mitomycin C as stimulated cell.
The reaction cells were prepared by the following method. Spleen was removed from 5-6 week old BALB/c mice and treated with RPMI1640 medium (containing kanamycin sulfate (60 μg/ml), penicillin G potassium (100 units/ml), N-2-hydroxyethylpiperazine-N′-2-ethanesulfonate (10 mM), 0.1% sodium hydrogencarbonate and L-glutamin (2 mM)) supplemented with 5% heat inactivated fetal bovine serum (FBS) to give a single cell suspension of the spleen cell. After hemolysis treatment, the suspension was adjusted to10^7 cells/ml with RPMI1640 medium containing 10^−4 M 2-mercaptoethanol and 10% FBS and used as a reaction cell suspension.
The reaction cell suspension (50 μl) prepared by the above method, stimulated cell suspension (50 μl) and the test compound (100 μl) prepared using RPMI1640 medium containing 10% FBS were added to a 96 well plate and incubated at 37° C. under 5% CO2 gas, 95% air for 4 days.
A pigment assay using 3-(4,5-dimethylthiazol-2-yl)-2,5-diphenyltetrazolium bromide (MTT) was applied for the determination of lymphocyte transformation reaction.
After the completion of culture, the supernatant (100 μl) in each well was removed, and 5 mg/ml MTT solution (20 μl) was added to each well, which was followed by incubation at 37° C. for 4 hours. Then, a 0.01 N hydrochloric acid solution (100 μl) containing 10% sodium dodecyl sulfate was added and the mixture was incubated at 37° C. overnight. The resulting purple crystals of formazan was dissolved and absorbance at 550 nm was measured using a microplate absorption meter, which was used as the index of lymphocyte transformation reaction of the mouse allogenic MLR. The inhibition of mouse allogenic MLR was evaluated by calculating the inhibition percentage by the following formula The results are shown in Table 7.

mouse femoral bone = test: Inhibition of bone resorption (in vitro), mouse femoral bone; settings: 6 days incubation of ICR mouse femoral bone
Description: Inhibition of Bone Resorption (in vitro)
The determination of the in vitro inhibition of bone resorption using mouse femoral bone followed the method below.
The femoral bone of 3-6 week old male ICR mice was aseptically removed, and bone marrow cavity was washed with F12 medium, containing 10% heat inactivated fetal bovine serum, penicillin G calcium (100 units/ml), kanamycin sulfate (60 μg) and 0.15% sodium hydrogencarbonate (hereinafter the medium is to be referred to as culture solution). After washing the bone marrow cavity and then removing the soft tissue adhered to the bone, the bone was subjected to incubation. The test compound was once dissolved in dimethyl sulfoxide (DMSO) to give a 10 mg/ml solution, which was diluted 1000-fold with the culture solution to give a 10 μg/ml solution. The test compounds were respectively added to the concentration shown in Table 7 and, using this culture solution (1.2 ml), the ICR mouse femoral bone was incubated in a 24 well plate for 6 days under the conditions of 5% CO2 gas, 95% air. After the completion of the incubation, the culture supernatant was recovered, and the amount of calcium suspending in the culture supernatant was quantitatively determined by the chelate method using o-cresolphthalein. The bone resorption inhibitory action of the test compound was calculated by the following formula using the incubation of the femoral bone without addition of the test compound as a control. [formula] This experiment was done with 4 cases in each group. As the control, the same amount of DMSO alone as in the case with the addition of the test compound was used.

[2] = tested on: normal human umberical vascular endothelial cells; test: Inhibition of angiogenesis (lumen formation in vascular endothelial cells); assay type: cell-based; settings: 18 hours, compared with the control, number rises with inhibition of lumen formation
Description: Inhibition of Angiogenesis
The inhibition of angiogenesis was evaluated by using the inhibition of lumen formation in vascular endothelial cell as an index. To be specific, normal human umberical vascular endothelial cells (KURABO […] LTD.) were suspended in E-GMUV medium at 5.5×10^4 cells/ml and 400 μl therefrom was added on matrigel plate (EHS sarcoma-derived reconstructed basement membrane, Collaborative Biomedical Products). Then, the test compound (1 mM solution, 4 μl) was added and the cells were incubated at 37° C. under 5% CO2 gas for 18 hours. After the completion of the incubation, the number of lumen per predetermined area was counted under a microscope. Inasmuch as the number of lumen increases by the inhibition of lumen formation, the test compound was evaluated by comparison of the number of lumen with the control.

[3] = tested on: hind limb skin blood flow; test: Peripheral blood flow increasing action in STZ-induced diabetic rats; assay type: in vivo, rat; settings: intravenous
Description: Peripheral Blood Flow Increasing Action
Streptozotocin (STZ, 65 mg/kg) was intravenously injected to male SD rats (body weight 200-300 g) to prepare diabetic rats. One month later, STZ-induced diabetic rats were anesthetized with pentobarbital sodium and the blood flow in the hind limb skin was measured with laser blood flowmeter (ALF21R, Advance). The test compound was intravenously administered via catheter dwelled in the carotid arteries, and hind limb skin blood flow increasing action was observed. The blood flow increasing action of the test compound was expressed by increase percentage from the blood flow before administration.

[4] = tested on: Bovine Aorta Thoracia Rho Kinase; test: Rho kinase inhibitory action (inhibition of bovine aorta thoracia Rho kinase); assay type: biochemical; settings: test compound 10 μM
Description: Rho Kinase Inhibitory Action (Inhibition of Bovine Aorta Thoracia Rho Kinase)
The Rho kinase was prepared from bovine aorta of thorax by partial purification as in the following. The artery was minced and homogenized with a 9-fold amount of 50 mM Tris-hydroxymethylaminomethane (Tris) (pH=7.4), 1 mM dithiothreitol, 1 mM EGTA, 1 mM EDTA, 100 μM p-amidinophenylmethylsulfonyl fluoride, 5 μM E-64, 5 μM leupeptine and 5 μM pepstatin A. The homogenate was centrifuged (10,000×g, 30 minutes) to give supernatant. The supernatant was adsorbed onto a hydroxyapatite column. The column was washed with 0.2M phosphate buffer (pH=6.8). The standard product of Rho kinase was eluted with 0.4M phosphate buffer (pH=6.8). The Rho kinase was assayed as follows.
A reaction mixture (total amount 50 μl) containing 50 mM Tris, 1 mM EDTA, 5 mM MgCl2, 50 μg/ml histone, 10 μM GTPγS, 100 μg/ml Rho, 2 μM [^32P]ATP, the Rho kinase (3 μl) prepared in the above and the test compound was reacted at 30° C. for 5 minutes. The reaction was terminated by the addition of 25% trichloroacetic acid (TCA) solution (1 ml) and the mixture was stood at 4° C. for 30 minutes. Then, the mixture was filtered through a membrane filter (HAWP type, Millipore), and the radioactivity of the filter was counted on a liquid scintillation counter. The inhibitory action of the test compound was calculated from the following formula based on the comparison of the radioactivity with the sample without the test compound (control).

[5] = tested on: CEM cells (human T cell type established cell); test: Inhibition of VLA integrin activation (phorbol ester-induced adhesion of CEM cells to fibronectin); assay type: cell-based; settings: CCRF-CEM, concentration 100 μM, PMA-induced adhesion, read-out: Adhesion induction inhibition (%)
Description: Inhibition of VLA (Very Late Antigen) Integrin Activation
As the index of the activation by VLA integrin, phorbol ester-induced adhesion of CEM cells (human T cell type established cell) to fibronectin, which is a ligand of VIA integrin, was measured. The inhibitory action on the induced adhesion by the test compound was determined by the following method.
CEM cells were washed with RPMI1640 medium containing 0.5% bovine serum albumin (BSA), 10 mM HEPES, 2 mM L-glutamin, 1 mM sodium pyruvate, 60 μg/ml kanamycin sulfate and 1.5 mg/ml sodium hydrogencarbonate (hereinafter this medium is referred to as culture solution) and suspended in this medium for use in the following experiment. To each well of a 96 well plate coated with human fibronectin were added CEM cells (5×10^4) and the test compound dissolved in the culture solution (final concentration 1-100 μM) to the amount of 100 μl, and the plate was stood at 37° C. for 1 hour. Then, PMA (phorbol 12-myristate 13-acetate, TPA; final concentration 10 ng/ml) and the test compound were added to the amount of 200 μl, and the plate was stood at 37° C. for 30 minutes. Each well was washed twice with the culture solution (200 μL) at 37° C., and the LDH (lactate dehydrogenase) activity of the cells adhered to the plate was determined, whereby the amount of the adhered cell was measured. Based on the results obtained by the above-mentioned method, the inhibitory action of the test compound on the induced adhesion was calculated by the following formula The results are shown in Table 6. Inhibition (%) of adhesion induction=(a−b)/(a−c)×100 • a=number of cells adhered with the addition of PMA • b=number of cells adhered with the addition of test compound and PMA • c=number of cells adhered without stimulation

Row | Compound | melting point | also measured
1 | O=C(Nc1ccnc2[nH]ccc12)C1CCNCC1 (as salt: hydrochloride) (hydrate or solvate) [Compound 193, N-(1H-pyrrolo[2,3-b]pyridin-4-yl)-4-piperidinecarboxamide] | 273 °C (dec.) | –
2 | O=C(Nc1ccnc2[nH]ncc12)C1CCNCC1 (as salt: hydrochloride) (hydrate or solvate) [Compound 194, N-(1H-pyrazolo[3,4-b]pyridin-4-yl)-4-piperidinecarboxamide] | 277 °C (dec.) | –
3 | O=C(Nc1ccnc2c1CCN2)C1CCNCC1 (as salt: hydrochloride) (hydrate or solvate) [Compound 197, N-(2,3-dihydro-1H-pyrrolo[2,3-b]pyridin-4-yl)-4-piperidinecarboxamide] | 235 °C (dec.) | –
4 | O=C(Nc1ccnc2[nH]ccc12)C1CCN(CCc2ccccc2)CC1 (as salt: hydrochloride) (hydrate or solvate) [Compound 198, N-(1H-pyrrolo[2,3-b]pyridin-4-yl)-1-(2-phenylethyl)-4-piperidinecarboxamide] | 272 °C (dec.) | –
5 | N=C(N)N1CCC(C(=O)Nc2ccnc3[nH]ccc23)CC1 (as salt: hydrochloride) (hydrate or solvate) [Compound 199, N-(1H-pyrrolo[2,3-b]pyridin-4-yl)-1-amidino-4-piperidinecarboxamide] | 246 °C (dec.) | –
6 | O=C(Nc1ccnc2[nH]ccc12)C1CCN(Cc2ccccc2)CC1 (as salt: hydrochloride) (hydrate or solvate) [Compound 201, N-(1H-pyrrolo[2,3-b]pyridin-4-yl)-1-benzyl-4-piperidinecarboxamide] | 260 °C (dec.) | –
7 | O=C(Nc1ccnc2[nH]ncc12)C1CCN(CCc2ccccc2)CC1 (as salt: hydrochloride) (hydrate or solvate) [Compound 202, N-(1H-pyrazolo[3,4-b]pyridin-4-yl)-1-(2-phenylethyl)-4-piperidinecarboxamide] | 259 to 261 °C (dec.) | –
8 | O=C(Nc1ccnc2[nH]ncc12)C1CCN(CCCc2ccccc2)CC1 (as salt: hydrochloride) (hydrate or solvate) [Compound 203, N-(1H-pyrazolo[3,4-b]pyridin-4-yl)-1-(3-phenylpropyl)-4-piperidinecarboxamide] | 240 to 244 °C (dec.) | –
9 | O=C(Nc1ccnc2[nH]ccc12)C1CCN(CCCc2ccccc2)CC1 (as salt: hydrochloride) [Compound 200, N-(1H-pyrrolo[2,3-b]pyridin-4-yl)-1-(3-phenylpropyl)-4-piperidinecarboxamide] | 276 °C (dec.) | –
10 | COCn1ncc2c(NC(=O)C3CCNCC3)ccnc21 (hydrate or solvate) [Compound 196, N-(1-methoxymethyl-1H-pyrazolo[3,4-b]pyridin-4-yl)-4-piperidinecarboxamide] | 240 to 241 °C | –
11 | CC(N)[C@H]1CC[C@H](C(=O)Nc2ccnc3[nH]ncc23)CC1 (single isomer, unassigned; (+)) [Compound 112.2HCl, (+)-trans-N-(1H-pyrazolo[3,4-b]pyridin-4-yl)-4-(1-aminoethyl)cyclohexanecarboxamide] | – | IC50 ([1]; Mus musculus, Lymphocyte, 96 h): 4400 nM; inhibition at 100 µM (mouse femoral bone; 144 h): 75.7%
12 | CC(C)(N)[C@H]1CC[C@H](C(=O)Nc2ccnc3[nH]ccc23)CC1 [Compound 110.2HCl.H2O, trans-N-(1H-pyrrolo[2,3-b]pyridin-4-yl)-4-(11-amino-1-methylethyl)cyclohexanecarboxamide] | – | IC50 [1]: 1100 nM; Bone resorption inhibition % (μM) (mouse femoral bone; 100 μM): 74.0(100) %; Number of lumen (10 μM) [2]: 203%
13 | C[C@@H](N)c1ccc(C(=O)Nc2ccnc3[nH]ncc23)cc1 [Compound 166.2HCl.H2O, (R)-(+)-N-(1H-pyrazolo[3,4-b]pyridin-4-yl)-4-(1-aminoethyl)benzamide] | – | Increase in skin blood flow ± standard error (%) ([3]; 0.3 μg): 143.2 ± 25.4%; Increase in skin blood flow ± standard error (%) ([3]; 1 μg): 165.9 ± 42.5%
14 | O=S(=O)(c1cccc2cnccc12)N1CCCNCC1 [Compound 204.2HCl, 1-(5-isoquinolinesulfonyl)homopiperazine] | – | Number of lumen (10 μM) [2]: 133%; Inhibition (%) [4]: 93%; inhibition at 100 µM [5]: 82%
